The molecules below were run against T1, Corticotropin-releasing factor receptor 1 (Homo sapiens, UniProt P34998) (assay: Binding affinity against human Corticotropin releasing factor receptor 1 expressed in HEK 293E cells using [125I]TYR-oCRH).
T1 sequence (P34998 whole entry): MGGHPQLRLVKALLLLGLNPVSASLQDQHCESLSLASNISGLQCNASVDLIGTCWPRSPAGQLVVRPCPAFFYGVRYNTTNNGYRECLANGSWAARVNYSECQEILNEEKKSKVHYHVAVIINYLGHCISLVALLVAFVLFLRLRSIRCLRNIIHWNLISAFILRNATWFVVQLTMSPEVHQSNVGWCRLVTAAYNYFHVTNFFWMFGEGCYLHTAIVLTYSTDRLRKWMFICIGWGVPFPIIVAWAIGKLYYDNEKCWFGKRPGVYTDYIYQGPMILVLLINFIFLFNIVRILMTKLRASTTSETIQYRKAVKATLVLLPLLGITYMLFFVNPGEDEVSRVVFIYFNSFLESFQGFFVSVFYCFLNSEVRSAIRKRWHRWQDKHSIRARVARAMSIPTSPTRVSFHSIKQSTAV
Assay type: cell-based, HEK293

| Ki [nM] | SMILES |
| --- | --- |
| 16.2 | CCCN(CC1CC1)c1nc(C)nc2c1sc(=O)n2-c1c(C)cc(C)cc1C |
| 8.6 | COCCN(CCOC)c1nc(C)nc2c1sc(=S)n2-c1c(C)cc(C)cc1C |
| 12.6 | CCCN(CC1CC1)c1nc(C)nc2c1sc(=S)n2-c1ccc(C(C)C)cc1Br |
| 13.1 | CCCN(CC1CC1)c1nc(C)nc2c1sc(=S)n2-c1c(C)cc(C)cc1C |
| 9.2 | CCN(CC)c1nc(C)nc2c1sc(=S)n2-c1c(C)cc(C)cc1C |

More lines, now with the values behind:

| SMILES | Ki [nM] |
| --- | --- |
| CCCN(CC1CC1)c1nc(C)nc2c1sc(=O)n2-c1ccc(C(C)C)cc1Br | 4.1 |
| CCN(CC)c1nc(C)nc2c1sc(=O)n2-c1ccc(C(C)C)cc1Br | 9.4 |
| COCCN(CCOC)c1nc(C)nc2c1sc(=S)n2-c1ccc(C(C)C)cc1Br | 6.6 |
| Cc1nc(N2CCOCC2)c2sc(=S)n(-c3ccc(C(C)C)cc3Br)c2n1 | 122 |
| CCC(C)N(c1nc(C)nc2c1sc(=S)n2-c1ccc(C(C)C)cc1Br)C(C)CC (stereo not given) | 45.4 |
| CCN(CC)c1nc(C)nc2c1sc(=S)n2-c1ccc(C(C)C)cc1Br | 4.1 |
| CCCCN(CC)c1nc(C)nc2c1sc(=S)n2-c1ccc(C(C)C)cc1Br | 23.9 |
| COCCN(CCOC)c1nc(C)nc2c1sc(=O)n2-c1c(C)cc(C)cc1C | 5 |
| CCN(CC)c1nc(C)nc2c1sc(=O)n2-c1c(C)cc(C)cc1C | 14.5 |
| COCCN(CCOC)c1nc(C)nc2c1sc(=O)n2-c1ccc(C(C)C)cc1Br | 14.5 |

Source: ChEMBL document CHEMBL1131681, “Thiazolo[4,5-d]pyrimidine thiones and -ones as corticotropin-releasing hormone (CRH-R1) receptor antagonists” (Bioorg Med Chem Lett, 1999)
